From the supplement of paper PMC5908809

What was measured:
[1] = test system: SNK-6 (IL-2 2.5 ng/mL); experiment: drug sensitivity score (DSS) (DSS units); higher = more sensitive; extreme values may be limits of the assay; settings: 72 h
[2] = test system: NKL (IL-2 2.5 ng/mL); experiment: as above; settings: 72 h
[3] = test system: IMC-1 (IL-2 20 ng/mL); experiment: as above; settings: 72 h
[4] = test system: normal primary NK cells, pool 2 (3 donors) (IL-2 2.5 ng/mL); experiment: as above; settings: 72 h
[5] = test system: KHYG-1 (IL-2 2.5 ng/mL); experiment: as above; settings: 72 h
[6] = test system: DERL-7 (IL-2 2.5 ng/mL); experiment: as above; settings: 72 h
[7] = test system: normal primary NK cells, pool 1 (3 donors), resting (IL-2 0 ng/mL); experiment: as above; settings: 72 h
[8] = test system: normal primary NK cells, pool 3 (3 donors) (IL-2 2.5 ng/mL); experiment: as above; settings: 72 h
[9] = test system: normal primary NK cells, pool 1 (3 donors) (IL-2 2.5 ng/mL); experiment: as above; settings: 72 h
[10] = test system: NK-92 (IL-2 2.5 ng/mL); experiment: as above; settings: 72 h
[11] = test system: KAI3 (IL-2 2.5 ng/mL); experiment: as above; settings: 72 h
[12] = test system: YT (IL-2 2.5 ng/mL); experiment: as above; settings: 72 h
[13] = test system: NK-YS (IL-2 2.5 ng/mL); experiment: as above; settings: 72 h
[14] = test system: normal NK cells expanded with K562-aAPC; experiment: as above; settings: 72 h; IL-2 2.5 ng/mL
Description: (§1)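 Drug sensitivity and resistance testing on K562-aAPC-expanded normal NK cells: 5 concentrations (10-fold steps over a 10,000-fold range), 72 h at 37 °C, viability by CellTiter-Glo normalised to DMSO and benzethonium chloride controls; DSS from the fitted curve.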

[15] = test system: SNK-6 (IL-2 2.5 ng/mL); experiment: percent inhibition of viability; higher = more inhibition; settings: 72 h
[16] = test system: NKL (IL-2 2.5 ng/mL); experiment: as above; settings: 72 h
[17] = test system: IMC-1 (IL-2 20 ng/mL); experiment: as above; settings: 72 h
[18] = test system: normal primary NK cells, pool 2 (3 donors) (IL-2 2.5 ng/mL); experiment: as above; settings: 72 h
[19] = test system: KHYG-1 (IL-2 2.5 ng/mL); experiment: as above; settings: 72 h
[20] = test system: DERL-7 (IL-2 2.5 ng/mL); experiment: as above; settings: 72 h
[21] = test system: normal primary NK cells, pool 1 (3 donors), resting (IL-2 0 ng/mL); experiment: as above; settings: 72 h
[22] = test system: normal primary NK cells, pool 3 (3 donors) (IL-2 2.5 ng/mL); experiment: as above; settings: 72 h
[23] = test system: normal primary NK cells, pool 1 (3 donors) (IL-2 2.5 ng/mL); experiment: as above; settings: 72 h
[24] = test system: NK-92 (IL-2 2.5 ng/mL); experiment: as above; settings: 72 h
[25] = test system: KAI3 (IL-2 2.5 ng/mL); experiment: as above; settings: 72 h
[26] = test system: YT (IL-2 2.5 ng/mL); experiment: as above; settings: 72 h
[27] = test system: NK-YS (IL-2 2.5 ng/mL); experiment: as above; settings: 72 h
[28] = test system: normal NK cells expanded with K562-aAPC; experiment: as above; settings: 72 h, IL-2 2.5 ng/mL
Description: as §1

C#Cc1cccc(Nc2ncnc3cc(OCCOC)c(OCCOC)cc23)c1 [Erlotinib] (max concentration tested 10000 nM)
Settings	drug sensitivity score
[1]	5.2
[2]	3.76
[3]	1.94
[4]	2.92
[5]	4.03
[6]	2.71
[7]	2.81
[8]	0.89
[9]	0.64
[10]	7.75
[11]	6.03
[12]	4.27
[13]	1.63
[14]	4.14

percent inhibition of viability [%]
Settings	1 nM	10 nM	100 nM	1000 nM	10000 nM
[15]	7.98	8.62	18.3	17.6	32.2
[16]	5.31	4.23	11.4	14.5	38.5
[17]	1.33	9.48	7.46	12.3	22.8
[18]	-6.62	-1.77	13.4	4.86	41.7
[19]	3.49	6.34	8.19	9.39	47.6
[20]	0.1	-2.35	-1.33	1.39	48.4
[21]	-2.01	-10.5	-8.04	-1.92	55.7
[22]	-5.26	-4.35	6.24	-3.65	27.2
[23]	0.75	-3.53	2.15	-7.62	24.8
[24]	9.74	4.56	24.3	25.9	43.1
[25]	1.13	8.32	-5.25	20	58.5
[26]	8.58	6.57	10.3	17.4	38.6
[27]	1.58	1.15	0.89	5.14	24.1
[28]	0.68	3.68	2.85	12.2	44.6

CCNC(=O)CCC/C=C\C[C@@H]1[C@@H](/C=C/[C@@H](O)CCc2ccccc2)[C@H](O)C[C@@H]1O [Bimatoprost] (max concentration tested 5500 nM)
Settings	drug sensitivity score
[1]	0
[2]	0
[3]	0.89
[4]	0.89
[5]	0.89
[6]	0.89
[7]	0
[8]	0.89
[9]	0
[10]	0.89
[11]	0.89
[12]	0.89
[13]	0.89
[14]	0.89

percent inhibition of viability [%]
Settings	0.55 nM	5.5 nM	55 nM	550 nM	5500 nM
[15]	17.6	0.29	2.65	-15.2	-3.36
[16]	-10.6	-7.92	-13.9	-14.1	7.05
[17]	-1.84	-3.91	-0.72	-4.98	-0.62
[18]	-11.3	-11.2	-11.5	-10.1	-6.11
[19]	-6.16	-6.81	-5.76	-5.66	-2.75
[20]	-5.3	-2.53	-3.35	-10.4	-4.94
[21]	5.81	-2	-9.81	4.1	6.67
[22]	-15.9	-13.5	-18	-10.8	-6.94
[23]	-4.1	-2.93	-7.66	5.27	3.45
[24]	-8.7	-4.9	-11.6	-5.65	-8.03
[25]	-9.15	-10.1	-8.67	-6.35	-7.76
[26]	-1.68	-3.7	-5.41	-3.35	-5.44
[27]	-3.18	-8.08	-6.49	-9.97	-6.34
[28]	-0.32	-7.8	-7.43	-6.39	-7.75

O=C(NOC[C@H](O)CO)c1ccc(F)c(F)c1Nc1ccc(I)cc1F (max concentration tested 1000 nM)
Settings	drug sensitivity score
[1]	0
[2]	11.1
[3]	0
[4]	0
[5]	9.09
[6]	23.1
[7]	0
[8]	0
[9]	1.95
[10]	0
[11]	3.26
[12]	0
[13]	0
[14]	0

percent inhibition of viability [%]
Settings	0.1 nM	1 nM	10 nM	100 nM	1000 nM
[15]	4.76	22	-8.5	-17.1	-28.3
[16]	-14.2	-2.12	27.4	41.5	59.1
[17]	-4.97	0.45	-4.28	-5.8	-9.8
[18]	-3.98	-4.69	-0.06	-5.3	5.01
[19]	-3.39	0.89	14.1	40.9	55
[20]	102	5.21	16.2	22.4	38.7
[21]	2.14	0.69	1.05	6.05	7
[22]	-7.16	-7.47	-4.48	-8.83	-4.17
[23]	-2.22	-8.03	2.53	15.6	18
[24]	-5.72	-7.22	-10.3	-30.8	-12.8
[25]	-0.87	5.85	13.8	15.7	22.6
[26]	-2.67	-1.04	-2.4	1.31	4.12
[27]	-5.52	-3.02	-1.28	2.92	8.84
[28]	-1.9	-4.6	-6.15	-9.26	-3.18

CC(O)(CS(=O)(=O)c1ccc(F)cc1)C(=O)Nc1ccc(C#N)c(C(F)(F)F)c1 (stereo not given) [Bicalutamide] (max concentration tested 10000 nM)
Settings	drug sensitivity score
[1]	2.16
[2]	8.09
[3]	3.5
[4]	0
[5]	4.48
[6]	0
[7]	0
[8]	0
[9]	0
[10]	3.61
[11]	7.75
[12]	1.84
[13]	2.2
[14]	0.74

percent inhibition of viability [%]
Settings	1 nM	10 nM	100 nM	1000 nM	10000 nM
[15]	9.4	13.4	4.02	9.59	26.6
[16]	0.19	16.2	5.15	40.3	35.9
[17]	3.29	5.96	8.36	9.75	42.3
[18]	-0.02	-1.32	-0.86	-0.13	7.12
[19]	3.99	22.1	3.98	27.4	19.9
[20]	1.65	7.46	-4.98	5.71	5.22
[21]	2.97	-8.07	-9.37	-26.1	-10.4
[22]	3.23	-2.54	5.11	-2.8	-0.48
[23]	-3.4	-8.36	-1.19	-15.8	6.46
[24]	10.3	8.57	4.92	20.1	30.6
[25]	14.6	10.8	21.5	20.8	43.6
[26]	3.05	13.5	3.8	17.9	16.7
[27]	9.7	4	13.7	9.96	23.5
[28]	5.68	3.24	1.15	11.5	13.4

CS(=O)(=O)c1ccc(C2=C(c3ccccc3)C(=O)OC2)cc1 [Rofecoxib] (max concentration tested 10000 nM)
Settings	drug sensitivity score
[1]	0
[2]	0
[3]	0
[4]	0
[5]	0
[6]	0
[7]	0
[8]	0
[9]	0
[10]	0
[11]	0
[12]	0
[13]	0
[14]	0

percent inhibition of viability [%]
Settings	1 nM	10 nM	100 nM	1000 nM	10000 nM
[15]	8.2	18.3	4.94	9.79	3.14
[16]	11.4	9.36	8.93	4.19	9.11
[17]	2.54	0.06	3	-1.23	3.31
[18]	-7.81	1.86	-6.15	-8.51	-5.43
[19]	0.01	1.72	2.69	2.11	2.37
[20]	6.85	-1.97	-3.99	2.79	0.07
[21]	-13.7	-25.3	-34.2	-6.69	-25.9
[22]	-7.45	-5.99	-3.42	-7.23	-12.4
[23]	-5.06	-9.08	-8.33	2.49	0.6
[24]	11.4	-0.5	-4.39	-1.55	-5.21
[25]	8.75	4.53	5.34	3.57	-3.77
[26]	5.17	5.42	4.83	4.08	6.74
[27]	3.55	-3.6	-2.98	3.34	-0.78
[28]	10.3	5.54	3.01	2.73	3.42
